Measured values published in patent US20120121736A1, “COMPOSITION FOR TREATING GASTRIC ULCER AND A PROCESS THEREOF” (priority 2010, published 2012).

Columns and labels:
[1] = tested on: Cold Restraint Ulcer Model (CRU); assay: Cold Restraint Ulcer (CRU) model; format: in vivo, rats
Description: EXPERIMENT 1: EFFECT ON COLD RESTRAINT ULCERS (CRU) MODEL METHOD: Adult rats of either sex, weighing 150-175 grams are fasted for 24 hours in metallic cages with raised mesh bottoms to prevent coprophagia and were allowed free access to water. The test drugs were administered 45 minutes before immobilizing the animals. The rats were immobilized in the restraint cage and kept at 4° C. in BOD incubator for 2 hours (According to the method of Senay and Levine 1967). The animals were sacrificed immediately after the restraint period. The abdomen was cut opened; stomach was taken out and incised along the greater curvature to observe the gastric lesions with the help of Magnascope (5× magnification) The following arbitrary scoring system was used to grade the severity and intensity of the lesions: 1. Shedding of epithelium=10 2. Petechial and frank hemorrhages=20 3. One or two ulcers=30 4. More than two ulcers=40 5. Perforated ulcers=50 The presence of any of these lesions was considered as a positive ulcerogenic response which has been shown as percentage of rats showing gastric lesions. The severity of ulcers is expressed in terms of ulcer index, which is the mean score of gastric lesions of all the rats in a group. The term Ulcer Index is defined as: Ulcer Index (U. I.)=Us+Up×10−1 where Us=Mean severity of ulcer score and Up=Percentage of animals with Ulcer incidences. The percentage protection is calculated as follows: Percentage protection=(C−T/C)×100. where C=Number of animals showing ulcer response in control group and T=Number of animals showing ulcer response in test group.

[2] = tested on: Aspirin induced ulcer model; assay: Aspirin induced gastric ulcer model; format: in vivo, rats
Description: EXPERIMENT 2: EFFECT ON ASPIRIN INDUCED GASTRIC ULCER MODEL Method: Gastric ulceration was induced by aspirin according to the method of Djahanguiri (1969). Aspirin (150 mg/Kg.) was administered per orally as a suspension in gum-acacia and the animal was sacrificed 5 hr. after the aspirin treatment and the ulcer index with protection index were calculated.

[3] = tested on: histamine induced duodenal ulcer; assay: Histamine induced duodenal ulcer model; format: in vivo, Guinea pig
Description: EXPERIMENT 3: EFFECT ON HISTAMINE INDUCED ULCER MODEL Method:
1. Animals were fasted for 24 hours with access to water.
2. The drug was given orally 1 hour prior to the histamine administration.
3. Histamine was administered in a dose of 0.25 mg/Kg, i. m. at 30 minutes interval for 7 times and it induced 100% duodenal ulceration in guinea pig (According to the method of Watt and Eagleton 1964).
4. The animals were sacrificed after half an hour of last injection under ether anesthesia.
5. The stomach along with duodenum were removed washed thoroughly and examined for the lesions. Ulcer index and protection index were calculated.

[4] = tested on: Ethanol Induced Ulcer Model; assay: Alcohol (ethanol) induced gastric ulcer model; format: in vivo, rats; settings: in respect to the protection of Omeprazole taken as 100%
Description: EXPERIMENT 4: EFFECT ON ALCOHOL INDUCED GASTRIC ULCERS IN RATS Method: 1. Adult rats of either sex were taken; weighing 150-175 grams were fasted for 24 hours with free access to water.
2. The test drugs were administered (p. o.) 45 minutes before alcohol administration.
3. 1 ml of chilled absolute alcohol was administered (p. o.) to the rats (According to the Wittetal).
4. Immediately after 1 hour, the animals were anesthetized, abdomen was cut opened stomach was taken out and incised along the greater curvature to observe the gastric lesions.
The ulcers are examined under the 5× magnification with the help of magnascope. Absolute ethanol lesions appears as blackish lesions grouped in patches of varying size, usually parallel to the major axis of the stomach.
5. The lengths of the lesions are measured and summated to give a total lesion score, then calculated and expressed in percentage.

[5] = tested on: pyloric ligation induced Ulcer; assay: Pyloric ligation induced ulcer model; format: in vivo, rats; settings: in respect to the protection of Omeprazole taken as 100%
Description: EXPERIMENT 5: EFFECT ON PYLORIC LIGATION INDUCED ULCER MODEL Method: 1. Animals were fasted for 24 hours in the raised mesh bottom cages to prevent coprophagia and were allowed free access to water. 2. The control group of rats was feed with the vehicle and the experimental groups with their respective drugs 45 minutes prior to the ligation. 3. The animal was anesthetized, abdomen was cut opened under xiphoid process, and the pyloric portion of the stomach was slightly lifted and ligated avoiding any damage to the adjacent blood vessels (According to the method of Shay et al. 1945). 4. The animals were stitched and kept for 4 hours with free access to water. 5. After 4 hours the animals were sacrificed under ether anesthesia and the stomach was dissected out incised along the greater curvature. 6. The stomach was washed thoroughly and the ulcer index was scored as per in other ulcer models.

[6] = 10 mg/Kg, standard, protection taken as 100%

SMILES: COc1ccc2[nH]c([S+]([O-])Cc3ncc(C)c(OC)c3C)nc2c1 (stereo not drawn) [Omeprazole]
- PERCENTAGE PROTECTION [1, 6]: 100%
- Ulcer severity (type of lesions) Scores (No. of rats showing lesions/No. of rats tested) 10 ([1]; 10 = Shedding of epithelium, Omeprazole 10 mg/Kg, p.o.): 3/10
- Ulcer severity (type of lesions) Scores (No. of rats showing lesions/No. of rats tested) 20 ([1]; 20 = Petechial and frank hemorrhages, Omeprazole 10 mg/Kg, p.o.): 2/10
- PERCENTAGE PROTECTION [2, 6]: 100%
- Ulcer severity (type of lesions) Scores (No. of rats showing lesions/No. of rats tested) 10 ([2]; 10 = Shedding of epithelium, Omeprazole 20 mg/Kg, Aspirin 150 mg/Kg p.o.): 2/6
- Ulcer severity (type of lesions) Scores (No. of rats showing lesions/No. of rats tested) 20 ([2]; 20 = Petechial and frank hemorrhages, Omeprazole 20 mg/Kg, Aspirin 150 mg/Kg p.o.): 1/6
- Percentage of ulcer incidence (No. of rats showing ulcer/total No. of rats used) ([2]; Omeprazole 20 mg/Kg): 50 (3/6) %
- Volume of gastric fluid ([3]; Omeprazole 10 mg/Kg, p.o.): 1.0 ± 0.2 mL
- PERCENTAGE PROTECTION ([3]; in respect to the protection of Omeprazole taken as 100%): 100%
- Ulcer severity (type of lesions) Scores (No. of Guinea pig showing lesions/No. of Guinea pig tested) 20 ([3]; score 20, Omeprazole 10 mg/Kg, p.o.): 1/3
- PROTECTION (Percentage protection) [4]: 100.0%
- PROTECTION (Percentage protection) [5]: 100%
